# In the oligonucleotide strings, read from the 5' end, every base follows the letter of its sugar. An asterisk marks phosphorothioate; unmarked linkages are phosphodiester. Other units and linkages are bracketed, terminal groups are in braces. A string of capitals states the bases alone. e = 2'-O-(2-methoxyethyl) (MOE); [5mC] = 5-methylcytosine; d = 2'-deoxy (DNA)
# Columns and labels:
# Glut4 = Glut4 mRNA expression in adipocytes (real-time PCR); type: cell-based, human; conditions: for Glut4 (mRNA expression): adipocytes, 250 nM oligomeric compound, day nine post-transfection, relative to control (1.0)
# PPARγ = PPARγ mRNA expression in adipocytes (real-time PCR); type: cell-based, human; conditions: for PPAR gamma (mRNA expression): adipocytes, 250 nM oligomeric compound, day nine post-transfection, relative to control (1.0)
# aP2 = aP2 mRNA expression in adipocytes (real-time PCR); type: cell-based, human; conditions: for AP2 (mRNA expression): adipocytes, 250 nM oligomeric compound, day nine post-transfection, relative to control (1.0); for aP2 mRNA: Table 75
# HSL = HSL mRNA expression in adipocytes (real-time PCR); type: cell-based, human; conditions: for HSL (mRNA expression): adipocytes, 250 nM oligomeric compound, day nine post-transfection, relative to control (1.0)
# HuVECs = assay: Endothelial tube formation assay in HuVECs; conditions: 75 nM oligomeric compound
# adipocytes = assay: Triglyceride accumulation assay in adipocytes; type: cell-based, human
# [1] = test system: BJ, B16-F10, T47D, T47Dp53 and HeLa cells; assay: Cell cycle assay (propidium iodide flow cytometry), cell line panel; type: cell-based; conditions: for G1 (percentage of cells in phase of the cell cycle) / G2/M (percentage of cells in phase of the cell cycle) / S (percentage of cells in phase of the cell cycle) / SubG1 (percentage of cells in phase of the cell cycle) / aneuploid (percentage of cells): 150 nM oligomeric compound, 4.5 μg/ml LIPOFECTIN, after 72 hours, propidium iodide flow cytometry
# [2] = differentiating adipocytes transfected with oligomeric compound, Table 75
# [3] = differentiating adipocytes transfected with oligomeric compound
# [4] = Table 20, adipocyte differentiation assay as in Example 13
# [5] = Table 17, differentiating adipocytes, control = treatment with ISIS 342673
# [6] = Table 18, differentiating adipocytes, control = treatment with ISIS 342673
substance,measurement,setting,value
327913 (antisense eA*eA*e[5mC]*e[5mC]*eG*eA*eT*eT*eT*e[5mC]*eA*eA*eA*eT*eG*eG*eT*eG*e[5mC]*eT*eA*eG) [compound 327913],Glut4 (mRNA expression),Glut4; Table 15,0.84
same,PPAR gamma (mRNA expression),PPARγ; Table 15,0.72
same,AP2 (mRNA expression),aP2; Table 15,0.99
same,HSL (mRNA expression),HSL; Table 15,0.92
same,% Activity Relative to UTC (tube formation),HuVECs; Table 57,69.0%
same,TG (triglyceride accumulation),"adipocytes; adipocytes, 250 nM oligomeric compound, relative to control (1.0), Table 15",0.59
327893 (antisense eA*eA*e[5mC]*e[5mC]*eA*e[5mC]*eA*e[5mC]*eA*eA*e[5mC]*e[5mC]*eT*eA*e[5mC]*eT*eA*e[5mC]*e[5mC]*eT*e[5mC]*eA) [compound 327893],Glut4 (mRNA expression),Glut4; Table 16,1.47
same,PPAR gamma (mRNA expression),PPARγ; Table 16,1.03
same,AP2 (mRNA expression),aP2; Table 16,0.97
same,HSL (mRNA expression),HSL; Table 16,0.85
same,% Activity Relative to UTC (tube formation),HuVECs; Table 56,100.0%
same,TG (triglyceride accumulation),"adipocytes; adipocytes, 250 nM oligomeric compound, relative to control (1.0), Table 16",0.95
327896 (antisense eA*e[5mC]*eA*eG*eT*eT*e[5mC]*eT*eT*e[5mC]*eA*eA*e[5mC]*eT*eG*eG*e[5mC]*eA*eG*e[5mC]*eT*eT) [compound 327896],GLUT4 mRNA,Glut4; [2],35 percentage of untreated control (UTC)
same,PPAR gamma mRNA,PPARγ; [2],52 percentage of untreated control (UTC)
same,aP2 mRNA,aP2; [3],43 percentage of untreated control (UTC)
same,HSL mRNA,HSL; [2],37 percentage of untreated control (UTC)
same,% Activity Relative to UTC (tube formation),HuVECs; Table 56,64.3%
same,TG (triglyceride accumulation),adipocytes; [2],22 percentage of untreated control (UTC)
327918 (antisense e[5mC]*eT*eA*eG*eT*eA*e[5mC]*eA*eT*e[5mC]*eA*eT*e[5mC]*eT*eA*eT*eA*e[5mC]*eT*eG*eT*eA) [compound 327918],GLUT4 mRNA,Glut4; [2],66 percentage of untreated control (UTC)
same,PPAR gamma mRNA,PPARγ; [2],74 percentage of untreated control (UTC)
same,aP2 mRNA,aP2; [3],91 percentage of untreated control (UTC)
same,HSL mRNA,HSL; [2],85 percentage of untreated control (UTC)
same,% Activity Relative to UTC (tube formation),HuVECs; Table 57,96.6%
same,TG (triglyceride accumulation),adipocytes; [2],65 percentage of untreated control (UTC)
327887 (antisense eG*e[5mC]*eG*eA*e[5mC]*e[5mC]*eA*eT*eG*eG*e[5mC]*eT*eG*eT*eA*eG*eA*e[5mC]*eT*eG*eT*eT*eA) [compound 327887],GLUT4 mRNA,Glut4; [2],43 percentage of untreated control (UTC)
same,PPAR gamma mRNA,PPARγ; [2],81 percentage of untreated control (UTC)
same,aP2 mRNA,aP2; [3],60 percentage of untreated control (UTC)
same,HSL mRNA,HSL; [2],53 percentage of untreated control (UTC)
same,% Activity Relative to UTC (tube formation),HuVECs; Table 56,57.1%
same,TG (triglyceride accumulation),adipocytes; [2],54 percentage of untreated control (UTC)
328382 (e[5mC]*eA*eG*eA*e[5mC]*dT*d[5mC]*d[5mC]*d[5mC]*dA*dA*d[5mC]*dT*dG*dA*e[5mC]*e[5mC]*eA*eG*eA) [compound 328382],G1 (percentage of cells in phase of the cell cycle),[1],59.8%
same,G2/M (percentage of cells in phase of the cell cycle),[1],14.4%
same,S (percentage of cells in phase of the cell cycle),[1],25.7%
same,SubG1 (percentage of cells in phase of the cell cycle),[1],2.9%
same,aneuploid (percentage of cells),[1],14.8%
same,Glut4,Glut4; [4],0.85
same,PPAR gamma,PPARγ; [4],0.96
same,AP2,aP2; [4],0.89
same,HSL,HSL; [4],0.75
same,TG,adipocytes; [4],0.72
328691 (e[5mC]*e[5mC]*e[5mC]*e[5mC]*eA*dT*d[5mC]*dT*dT*dA*dG*d[5mC]*dA*dT*d[5mC]*eT*eA*eA*eG*eG) [compound 328691],G1 (percentage of cells in phase of the cell cycle),[1],60.5%
same,G2/M (percentage of cells in phase of the cell cycle),[1],15.1%
same,S (percentage of cells in phase of the cell cycle),[1],24.4%
same,SubG1 (percentage of cells in phase of the cell cycle),[1],7.7%
same,aneuploid (percentage of cells),[1],16.6%
same,GLUT4 mRNA,Glut4; [3],144 percentage of untreated control (UTC)
same,PPAR gamma mRNA,PPARγ; [3],105 percentage of untreated control (UTC)
same,AP2 mRNA,aP2; [3],166 percentage of untreated control (UTC)
same,HSL mRNA,HSL; [3],156 percentage of untreated control (UTC)
same,TG (triglyceride accumulation),adipocytes; [3],130 percentage of untreated control (UTC)
328362 (eT*eG*eT*eG*eT*dT*dT*dT*d[5mC]*dT*dG*dA*d[5mC]*dT*d[5mC]*eA*eG*eT*e[5mC]*eA) [compound 328362],G1 (percentage of cells in phase of the cell cycle),[1],51.2%
same,G2/M (percentage of cells in phase of the cell cycle),[1],15.1%
same,S (percentage of cells in phase of the cell cycle),[1],33.6%
same,SubG1 (percentage of cells in phase of the cell cycle),[1],9.1%
same,aneuploid (percentage of cells),[1],12.9%
same,GLUT4 mRNA,Glut4; [3],80 percentage of untreated control (UTC)
same,PPAR gamma mRNA,PPARγ; [3],78 percentage of untreated control (UTC)
same,AP2 mRNA,aP2; [3],59 percentage of untreated control (UTC)
same,HSL mRNA,HSL; [3],83 percentage of untreated control (UTC)
same,TG (triglyceride accumulation),adipocytes; [3],73 percentage of untreated control (UTC)
TGAGCTACAGTGCTTCATCTCA [ISIS 327901] (chemistry not given here) [uniform 2′-MOE PS; targets mir-143],percentage of cells in the G2/M phase,"[1]; 150 nM, 72 hours (Table 29)",increased percentage of cells in the G2/M phase
328759 (antisense eG*eA*eG*eG*eG*dA*dT*dT*dG*dT*dA*dT*dG*dA*dA*e[5mC]*eA*eT*e[5mC]*eT) [compound 328759],GLUT4 mRNA,Glut4; [3],66 percentage of untreated control (UTC)
same,PPAR gamma mRNA,PPARγ; [3],95 percentage of untreated control (UTC)
same,AP2 mRNA,aP2; [3],108 percentage of untreated control (UTC)
same,HSL mRNA,HSL; [3],105 percentage of untreated control (UTC)
same,TG (triglyceride accumulation),adipocytes; [3],87 percentage of untreated control (UTC)
328119 (antisense eA*eA*eT*eA*eA*e[5mC]*eA*e[5mC]*eA*e[5mC]*eA*eT*e[5mC]*e[5mC]*eA*e[5mC]*eT*eT*eT*eA*eA) [compound 328119],GLUT4 mRNA,Glut4; [5],95.2 percentage of control
same,GLUT4 mRNA,Glut4; [2],104 percentage of untreated control (UTC)
same,PPAR gamma mRNA,PPARγ; [5],82.7 percentage of control
same,PPAR gamma mRNA,PPARγ; [2],102 percentage of untreated control (UTC)
same,AP2 mRNA,aP2; [5],99.9 percentage of control
same,aP2 mRNA,aP2; [3],119 percentage of untreated control (UTC)
same,HSL mRNA,HSL; [5],98.5 percentage of control
same,HSL mRNA,HSL; [2],101 percentage of untreated control (UTC)
same,TG (triglyceride accumulation),adipocytes; [5],90.2 percentage of control
same,TG (triglyceride accumulation),adipocytes; [2],109 percentage of untreated control (UTC)
328123 (antisense eT*eT*eA*e[5mC]*eA*eG*eG*eT*eG*e[5mC]*eT*eG*e[5mC]*eA*eA*e[5mC]*eT*eG*eG*eA*eA) [compound 328123],GLUT4 mRNA,Glut4; [5],162.4 percentage of control
same,GLUT4 mRNA,Glut4; [2],129 percentage of untreated control (UTC)
same,PPAR gamma mRNA,PPARγ; [5],74.7 percentage of control
same,PPAR gamma mRNA,PPARγ; [2],88 percentage of untreated control (UTC)
same,AP2 mRNA,aP2; [5],106.7 percentage of control
same,aP2 mRNA,aP2; [3],119 percentage of untreated control (UTC)
same,HSL mRNA,HSL; [5],85.4 percentage of control
same,HSL mRNA,HSL; [2],91 percentage of untreated control (UTC)
same,TG (triglyceride accumulation),adipocytes; [5],120.8 percentage of control
same,TG (triglyceride accumulation),adipocytes; [2],54 percentage of untreated control (UTC)
"341807 (antisense CTGGGACTTTGTAGGCCAGTT; all 2'-MOE, all phosphorothioate, methylation of C not given here) [compound 341807]",GLUT4 mRNA,Glut4; [6],119.5 percentage of control
same,GLUT4 mRNA,Glut4; [2],101 percentage of untreated control (UTC)
same,PPAR gamma mRNA,PPARγ; [6],86.2 percentage of control
same,PPAR gamma mRNA,PPARγ; [2],83 percentage of untreated control (UTC)
same,AP2 mRNA,aP2; [6],74.8 percentage of control
same,aP2 mRNA,aP2; [3],82 percentage of untreated control (UTC)
same,HSL mRNA,HSL; [6],96.8 percentage of control
same,HSL mRNA,HSL; [2],102 percentage of untreated control (UTC)
same,TG (triglyceride accumulation),adipocytes; [6],114.1 percentage of control
"340350 (antisense TGCTCAATAAATACCCGTTGAA; all 2'-MOE, all phosphorothioate, methylation of C not given here) [compound 340350]",GLUT4 mRNA,Glut4; [2],53 percentage of untreated control (UTC)
same,PPAR gamma mRNA,PPARγ; [2],59 percentage of untreated control (UTC)
same,aP2 mRNA,aP2; [3],64 percentage of untreated control (UTC)
same,HSL mRNA,HSL; [2],45 percentage of untreated control (UTC)
same,TG (triglyceride accumulation),adipocytes; [2],38 percentage of untreated control (UTC)
